Measured values: patent US6166085A, “Method of producing analgesia” (priority 1996, dated 2000)
Entries after “also recorded” stand apart in the source; their conditions may differ.

How the values were obtained:
[1] = system: sciatic nerve compound action potential; experiment: Rat sciatic nerve compound action potential in vivo, direct application; design: species or system Harlan Sprague Dawley rats; details: for blockade of sciatic nerve compound action potential (in words): direct application, metabolites 5 mg, 10 min
Protocol: Male Harlan Sprague Dawley rats (300-350 g) were anesthetized with pentobarbital/diazepam. The sciatic nerves were sequentially and bilaterally exposed by sharp/blunt dissection from the popliteal region proximally. Electrodes were placed at the sciatic notch (stimulating), and the interossei (recording); a grounding electrode was applied remote from the field. Baseline compound action potential (CAP) (A alpha/beta) wave heights (mV) in response to stimulation 1× per minute were recorded for ten minutes to obtain a stable reference. One drug/vehicle solution was applied per nerve, at mid-nerve (mid-thigh) level, in a volume of 250 μl, and compound action potential wave height then was recorded 1× per minute for ten minutes after application.

[2] = Observation of motor dysfunction and overt behavior / side effects; assay type: in vivo, Sprague-Dawley rats; details: for overt changes in behavior / adverse side effects, formalin test: formalin test studies; for overt changes in behavior / adverse side effects, formalin test / adverse side effects, neuropathy model: intrathecal; for adverse side effects, neuropathy model: neuropathic rats, 3-hydroxy MEGX 0.3 and 0.6 μmol, lidocaine 0.6 μmol
Description: Animals were also observed for the appearance of general motor dysfunction,as evidenced by inability to ambulate symmetrically and for any other overt signs of unusual activity.

mechanical allodynia = experiment: Mechanical allodynia in rat model of peripheral neuropathy (L5/L6 spinal nerve ligation), intrathecal, Example 2; assay type: in vivo, Sprague-Dawley rats; details: for effect on mechanical allodynia (50% response threshold), 0.6 μmol: 0.6 μmol intrathecal
Protocol: Experiments carried out in support of the present invention were performed in a rat model of peripheral neuropathy detailed in Example 2. Briefly, in the model used, rats are subjected to a surgical procedure, described by Kim and Chung (1992), designed to reproducibly injure peripheral nerves (spinal nerves L5 and L6). These rats develop a hyperesthetic state, which can be measured using one or more paradigms known in the art. Here, allodynia was measured by stimulation of neuropathic rat hindlimb using wire hairs having graded degrees of stiffness.
[…]. Test solutions at pH 6.58 were administered intrathecally as described above. Mechanical allodynia was measured by pressing nylon filaments of varying diameters against the paw. Data are expressed in terms of 50% response threshold, which is the median buckling weight required to evoke paw withdrawal; the lower the stimulus level, the more severe the allodynia.
Male Sprague-Dawley rats (200-350 gm) were prepared with chronic lumbar intrathecal catheters inserted under halothane anesthesia (Yaksh and Rudy). Animals were placed in a prone position and the left paraspinal muscles were separated from the spinous processes at the L4 -S2 levels, as described by Kim et al. The left L5 and L6 nerve roots were exposed and tightly ligated with 6-0 surgical silk suture. The rats were allowed to recover from anesthesia. Allodynia was typically observed to occur beginning 1-2 days post surgery and continuing for as long as 45 days. For testing, animals were placed in plastic cubicles with open wire mesh bottoms. Compound dissolved in preservative-free saline solution was administered in a volume of 10 μl through the intrathecal catheter, followed by 10 μl saline to flush the catheter line. Animals were tested for allodynia at various time points after drug treatment, as described below.
To assess the threshold of a non-noxious stimulus required to produce a left hind paw withdrawal (allodynia), Von Frey hairs (ranging from 0.4-15 grams), were systematically applied to the surgically treated hind paw. Failure to evoke a response was cause to test the next stiffer hair. Evocation of a brisk withdrawal response was cause to test the next lower stimulus intensity. This paradigm was repeated according to a statistical method (Dixon, 1976) to define the 50% response threshold.
Data in FIG. 6 are expressed in terms of 50% response threshold, which is the median buckling weight required to evoke paw withdrawal; the lower the stimulus level, the more severe the allodynia. Allodynia thresholds, measured 30 minutes after injection, were plotted against dosage. Each point represents a value for a single animal.

[3] = system: formalin-induced nociceptive responses; experiment: Rat formalin test (paw flinching), intrathecal drug; assay type: in vivo, Sprague-Dawley rats
Description: One such model, for response to an acute stimulus, is the rat formalin test. This test reflects several levels of processing of nociceptive information in the spinal cord (see Wheeler-Aceto, et al. 1990; Wheeler-Aceto, et al., 1991). […] This second phase is thought to represent a state of facilitated processing evoked by the afferent input present during phase 1 and to involve release of at least two substances, glutamate and a, tachykinin, based on pharmacological evidence (Yamamoto and Yaksh, 1991, 1992).
In the rat formalin test, a standard dose of formalin is injected into the rat paw, and flexions of the paw are quantitated over the following 90 minute period (Example 1). A biphasic response pattern is typically observed, with numerous responses observed during the period 5 min. after injection (Phase 1) and a second phase (Phase 2) which occurs during the period about 10-60 minutes following injection. The mean number of flinches per minute is recorded as a function of time.
Quantitation of responses during each phase is made by calculation of area under the curve of flinches/min., as shown in FIGS. 2B-2C.
FIGS. 2, 3 and 5 show results of experiments in which varying doses of 3-hydroxy MEGX designated 3-hydroxy MEGX, were tested for effects on the formalin response in rats. A 5% formalin solution was injected subcutaneously into the hindpaw of Sprague-Dawley rats. Ten minutes prior to formalin injection, 3-hydroxy MEGX was administered by bolus injection through an indwelling spinal (intrathecal) catheter terminating at the lumbar enlargement. For the results shown in FIGS. 2A-2C, dosing solutions were acidified to pH 6.58 with HCl. Injection volume was 20 μl.
In the standard rat formalin test, as described above, the test substance is administered prior to formalin injection. […]
Rats (male Sprague-Dawley, 275-300 g, Harlan Industries, Indianapolis, Ind.) were implanted with lumbar intrathecal catheters under halothane anesthesia (Yaksh and Rudy, 1976). Catheters (Polyethlyene PE-10) extended from the cisterna to the rostral edge of the lumbar enlargement. Three to five days after implant, animals without motor dysfunction were tested. Drugs tested in this assay were dissolved in sterile saline (0.9% NaCl) and injected in a volume of 10 μl followed by 10 μl sterile saline to clear the catheter.
Animals were examined for the effects of drugs given in the formalin test, in which 50 μl of 5% formalin was injected on the plantar surface of the paw of a lightly anesthetized (halothane, 3%) animal. The number of spontaneous flinchings/shakings of the injected paw were counted at intervals after the injection of the formalin.
The area under the curve of flinches/min was calculated for phase 1 (time=0-10 min) and phase 2 (10-60 min). […]

[4] = acute Phase 1, intrathecal, 10 min before 5% formalin, pH 6.58
[5] = lowest dose, 16.5 μg intrathecal, pH 6.58
[6] = persistent Phase 2, intrathecal, 10 min before 5% formalin, pH 6.58

CCNCC(=O)Nc1c(C)ccc(O)c1C [3-hydroxy MEGX, 2-(ethylamino)-N-(3-hydroxy-2,6-dimethylphenyl) acetamide]
local anesthetic (sodium channel blocking) activity ([1]; FIG. 12 legend): appears to lack local anesthetic (sodium channel blocking) activity altogether
blockade of sciatic nerve compound action potential (in words) ([1]; lidocaine 2.5 mg): no blockade could be obtained
activity in ranking of CAP blockade (Lido>MEGS>3-OH L>>3-OH MEGX=0) ([1]; metabolites at 5 mg, lidocaine 2.5 mg): 0
motor block / motor effects (summary) ([2]; IT, 3-hydroxy MEGX at effective anti-allodynia dose, MEGX in excess): did not cause motor block at an effective anti-allodynia dose; also recorded: no evidence of motor effects
overt changes in behavior / adverse side effects, formalin test [2]: produced no overt changes in behavior
adverse side effects, neuropathy model [2]: no observable adverse side effects
effect on mechanical allodynia (50% response threshold), 0.3 μmol (mechanical allodynia; 0.3 μmol intrathecal, pH 6.58): significant analgesic effects
effect on mechanical allodynia (50% response threshold), 0.6 μmol (mechanical allodynia; pH 6.58): significant analgesic effects
time of peak elevation of response (blockade of allodynia) (mechanical allodynia; intrathecal, single bolus, n=6 animals/treatment): 30 to 60 min
elevation of threshold response (mechanical allodynia; intrathecal, varying doses, n=6 animals/treatment): resulted in elevation of threshold response
possible maximum duration of effect of a single bolus injection (mechanical allodynia; intrathecal, "possibly up to"): up to 20 hours
duration of effect of a single bolus injection (mechanical allodynia; intrathecal, lasting in excess of): > 3 h
Phase 1 ED50 (approximately 50% inhibition) [3, 4]: 9.3 µg
Phase 1 ED50 (approximately 50% inhibition), molar [3, 4]: 42 nmol
duration of inhibition, higher doses ([3]; higher doses, intrathecal, pH 6.58, "up to 90 minutes or longer"): ≥ 90 min
blockade of persistent (Phase 2) nociceptive responses ([3]; intrathecal after formalin injection, pH 6.58): blocks persistent (Phase 2) nociceptive responses
blockade of formalin-induced acute and persistent nociceptive responses ([3]; intrathecal, dosing solutions pH 9.2, n=4 animals/group): dose-dependent blockade
duration of inhibition [3, 5]: up to one hour
inhibition of Phase 1 and Phase 2 responses [3, 5]: showed inhibition of both the Phase 1 and Phase 2 responses
Phase 2 ED50 (approximately 50% inhibition) [3, 6]: 29.9 µg
Phase 2 ED50 (approximately 50% inhibition), molar [3, 6]: 135 nmol

CCN(CC)CC(=O)Nc1c(C)cccc1C [lidocaine]
blockade of sciatic nerve compound action potential (in words) ([1]; lidocaine 2.5 mg): rapid and complete blockade of the sciatic nerve action potential; also recorded: abolished the CAP with ten minutes
duration of motor dysfunction (hindquarter flaccidity / weakness) ([2]; IT, 500 μg): approximately 10 minutes
motor dysfunction, IT (in words) ([2]; IT, Example 3, lidocaine and MEGX 500 μg, 3-OH L 58 μg (highest dose soluble in vehicle)): acute onset of hindquarter flaccidity
overt changes in behavior / adverse side effects, formalin test [2]: transient hindlimb paresis
adverse side effects, neuropathy model [2]: immediate and transient weakness
effect on mechanical allodynia (50% response threshold), 0.6 μmol (mechanical allodynia; pH 6.58): did not block mechanical allodynia
effect on formalin-induced nociceptive responses ([3]; intrathecal, pH 6.58, injection volume 20 μl): no effect on the formalin-induced nociceptive responses
